Values of other authors as cited in PMC4937428, “The Next Generation Non-competitive Active Polyester Nanosystems for Transferrin Receptor-mediated Peroral Transport Utilizing Gambogic Acid as a Ligand” (Scientific Reports, 2016).

Set-up: method as in PMID 16918721
Conditions: described in the literature

## CC(C)=CCC[C@]1(C)C=Cc2c(O)c3c(c(CC=C(C)C)c2O1)O[C@]12C(=C[C@@H]4C[C@H]1C(C)(C)O[C@@]2(C/C=C(/C)C(=O)O)C4=O)C3=O [GA, gambogic acid]
  Established safe dose: 60 mg/kg
